The record followed here is ChEMBL document CHEMBL1131942, “(3-substituted benzyl)thiazolidine-2,4-diones as structurally new antihyperglycemic agents” (Bioorg Med Chem Lett, 1999).

Each structure is given as a SMILES string.

Assay type in all cases: functional
The test system of assay [1] is Mus musculus. Nature of the assay: Antihyperglycemic activity was determined in obese (ob/ob) mice by po administration at a dose of 10 mg/kg.
Assay [2] has as its system Mus musculus. The assay is described as follows: Antihyperglycemic activity in obese mice(ob/ob) at 1 mg/kg peroral administration. The settings on record: route oral.
Assay [3] deals with Mus musculus. The assay is described as follows: Antihyperglycemic activity in obese mice(ob/ob) at 3 mg/kg peroral administration. Conditions: route oral.
The test system of assay [4] is Mus musculus. Nature of the assay: In vivo decrease in triglyceride in obese mice(ob/ob) by 3 mg/kg/day peroral administration for 2 weeks. Conditions: route oral.
The test system of assay [5] is Mus musculus. Nature of the assay: In vivo decrease in glucose in obese mice(ob/ob) at 10 mg/kg/day peroral administration for 2 weeks. Conditions: route oral.
Assay [6] relates to Mus musculus. Nature of the assay: In vivo decrease in glucose in obese mice(ob/ob) at 3 mg/kg/day peroral administration for 2 weeks. Conditions: route oral.
Assay [7] concerns Mus musculus. The assay is described as follows: In vivo decrease in insulin in obese mice(ob/ob) at 10 mg/kg/day peroral administration for 2 weeks. Conditions: route oral.
Assay [8] relates to Mus musculus. Nature of the assay: In vivo decrease in insulin in obese mice(ob/ob) at 3 mg/kg/day peroral administration for 2 weeks. The settings on record: route oral.
The subject of assay [9] is Mus musculus. Nature of the assay: In vivo decrease in glucose in obese mice(ob/ob) by 10 mg/kg/day peroral administration for 2 weeks. Conditions: route oral.
The test system of assay [10] is Mus musculus. The assay is described as follows: In vivo decrease in glucose in obese mice(ob/ob) at 1 mg/kg/day peroral administration for 2 weeks. The settings on record: route oral.
For assay [11], the system named is Mus musculus. The assay is described as follows: In vivo decrease in insulin in obese mice(ob/ob) at 0.3 mg/kg/day peroral administration for 2 weeks. Conditions: route oral.
The subject of assay [12] is Mus musculus. The assay is described as follows: In vivo decrease in insulin in obese mice(ob/ob) at 1 mg/kg/day peroral administration for 2 weeks. The settings on record: route oral.
Assay [13] concerns Mus musculus. Nature of the assay: In vivo decrease in triglyceride in obese mice(ob/ob) by 0.3 mg/kg/day peroral administration for 2 weeks. The settings on record: route oral.
The subject of assay [14] is Mus musculus. Nature of the assay: In vivo decrease in glucose in obese mice(ob/ob) by 1 mg/kg/day peroral administration for 2 weeks. The settings on record: route oral.
Assay [15] relates to Mus musculus. Nature of the assay: In vivo decrease in glucose in obese mice(ob/ob) by 0.3 mg/kg/day peroral administration for 2 weeks. The settings on record: route oral.

For `CC(C)Oc1ccc(CC2SC(=O)NC2=O)cc1C(=O)NCc1ccc(C(F)(F)F)cc1` (configuration not stated), the “Decrease in blood glucose” value in the assay on Mus musculus [1] is given as 45%.
The same measure, in the same setting: to `COc1ccc(CC2SC(=O)NC2=O)cc1C(=O)NCc1cc(C(F)(F)F)cc(C(F)(F)F)c1` (configuration not stated) belongs 30%.
In the case of `COc1ccc(C2SC(=O)NC2=O)cc1C(=O)NCc1ccc(C(F)(F)F)cc1` (configuration not stated), the “Decrease in blood glucose” value in the assay with Mus musculus [1] is recorded as 48%; in the assay with Mus musculus [2] it was 27%; in the assay with Mus musculus [3], 36%.
For the compound `O=C1NC(=O)C(Cc2ccc(F)c(C(=O)NCc3ccc(C(F)(F)F)cc3)c2)S1` (configuration not stated), the “Decrease in blood glucose” value with Mus musculus [1] was 50%.
The same measure, in the same setting: to `Cc1ccc(CC2SC(=O)NC2=O)cc1C(=O)NCc1ccc(C(F)(F)F)cc1` (configuration not stated) belongs 16%; to `COc1ccc(CNC(=O)c2cc(CC3SC(=O)NC3=O)ccc2OC)cc1` (configuration not stated), 21%; to `CCOc1ccc(CC2SC(=O)NC2=O)cc1C(=O)NCc1ccc(C(F)(F)F)cc1` (configuration not stated), 34%.
Still for that read-out and setting: the result for `COc1ccc(CNC(=O)c2cc(CC3SC(=O)NC3=O)ccc2OC)cc1OC` (configuration not stated) reads 30%.
As to `CCc1ccc(CCOc2ccc(CC3SC(=O)NC3=O)cc2)nc1` (configuration not stated) [PIOGLITAZONE], the “Decrease in blood glucose” value with Mus musculus [1] is 14%. In addition, the Rate of decrease with Mus musculus [4] is 85%; in the assay on Mus musculus [5] it was 75%; in the assay on Mus musculus [6], 64%; in the assay on Mus musculus [7] it was 41%; with Mus musculus [8], 43%; with Mus musculus [9] it was 99%.
For the compound `COc1ccc(CC2SC(=O)NC2=O)cc1C(=O)NCc1ccc(OC(F)(F)F)cc1` (configuration not stated), the “Decrease in blood glucose” value in the assay on Mus musculus [1] was found to be 34%.
`COc1ccc(CC2SC(=O)NC2=O)cc1C(=O)NCc1ccc(F)cc1` (configuration not stated): the “Decrease in blood glucose” value with Mus musculus [1] was determined as 28%.
Regarding `COc1ccc(CC2SC(=O)NC2=O)cc1C(=O)NCc1ccc(N(C)C)cc1` (configuration not stated), in the assay with Mus musculus [1], the “Decrease in blood glucose” value is reported as 12%.
On the same count and under the same terms, the result for `Cc1c(C)c2c(c(C)c1O)CCC(C)(COc1ccc(CC3SC(=O)NC3=O)cc1)O2` (configuration not stated) [TROGLITAZONE] reads 9%; that for `COc1ccc(C(=O)NCc2ccc(C(F)(F)F)cc2)cc1CC1SC(=O)NC1=O` (configuration not stated), 3%.
Turning to `COc1ccc(CCCC2SC(=O)NC2=O)cc1C(=O)NCc1ccc(C(F)(F)F)cc1` (configuration not stated), the “Decrease in blood glucose” value was 39% in the assay on Mus musculus [1], 10% with Mus musculus [2] and 29% with Mus musculus [3].
Consider `COc1ccc(CC2SC(=O)NC2=O)cc1C(=O)Nc1ccc(C(C)(C)C)cc1` (configuration not stated), for which the “Decrease in blood glucose” value in the assay on Mus musculus [1] is 17%.
As for `COc1ccc(CC2SC(=O)NC2=O)cc1C(=O)NCc1cccc(C(F)(F)F)c1` (configuration not stated), the “Decrease in blood glucose” value with Mus musculus [1] was found to be 41%.
On the same count and under the same terms, to `COc1ccc(CC2SC(=O)NC2=O)cc1C(=O)NCc1ccc(C(C)(C)C)cc1` (configuration not stated) belongs 5%.
Turning to `COc1ccc(CCC2SC(=O)NC2=O)cc1C(=O)NCc1ccc(C(F)(F)F)cc1` (configuration not stated), the “Decrease in blood glucose” value in the assay with Mus musculus [1] is given as 43%; with Mus musculus [2], 15%; in the assay with Mus musculus [3], 20%.
Consider `COc1c(CC2SC(=O)NC2=O)cccc1C(=O)NCc1ccc(C(F)(F)F)cc1` (configuration not stated), for which, in the assay on Mus musculus [1], the “Decrease in blood glucose” value is reported as 0%.
For `CCN(Cc1ccc(C(F)(F)F)cc1)C(=O)c1cc(CC2SC(=O)NC2=O)ccc1OC` (configuration not stated), in the assay on Mus musculus [1], the “Decrease in blood glucose” value is listed as 31%.
As to `COc1ccc(CC2SC(=O)NC2=O)cc1C(=O)NCc1ccccc1C(F)(F)F` (configuration not stated), the “Decrease in blood glucose” value in the assay on Mus musculus [1] stood at 4%.
Consider `COc1ccc(CC2SC(=O)NC2=O)cc1C(=O)NCc1ccc(C(F)(F)F)cc1` (configuration not stated), for which the “Decrease in blood glucose” value worked out at 58% in the assay on Mus musculus [1], 35% with Mus musculus [2] and 53% with Mus musculus [3]. Also, the Rate of decrease in the assay with Mus musculus [4] came out at 122%; in the assay with Mus musculus [5] it was 100%; with Mus musculus [10], 78%; in the assay on Mus musculus [6], 95%; in the assay with Mus musculus [11], 55%; with Mus musculus [7], 87%. Moreover, the Rate of decrease in the assay with Mus musculus [12] worked out at 59%; in the assay with Mus musculus [8], 83%; in the assay on Mus musculus [13], 67%; in the assay with Mus musculus [9] it was 130%; in the assay on Mus musculus [14], 80%; in the assay on Mus musculus [15], 77%.
On to `COc1ccc(CC2SC(=O)NC2=O)cc1C(=O)NCc1ccccc1` (configuration not stated), for which the “Decrease in blood glucose” value with Mus musculus [1] is 37%; in the assay on Mus musculus [2], 19%; in the assay with Mus musculus [3], 31%.
For the compound `COc1ccc(CC2SC(=O)NC2=O)cc1C(=O)NCc1ccc(C)cc1` (configuration not stated), the “Decrease in blood glucose” value in the assay on Mus musculus [1] is on record as 30%.
As to `O=C1NC(=O)C(Cc2ccc(O)c(C(=O)NCc3ccc(C(F)(F)F)cc3)c2)S1` (configuration not stated), the “Decrease in blood glucose” value with Mus musculus [1] is 34%; in the assay on Mus musculus [2] it was 7%; in the assay with Mus musculus [3], 12%.
Consider `COc1ccc(CC2SC(=O)NC2=O)cc1C(=O)NCCc1ccc(C(F)(F)F)cc1` (configuration not stated), for which, in the assay on Mus musculus [1], the “Decrease in blood glucose” value is on record as 3%.
